Measurements: patent US5386019A, “Synthesis of inhibitors of calmodulin-mediated enzymes including KS-501, KS-502 and their enantiomers” (Yale University, priority 1992, dated 1995)

Experiments:
[1] = system: Ca++/CaM dependent Kinase II; experiment: Synapsin I phosphorylation at sites 2,3 by Ca++/Calmodulin kinase (Table I A); format: biochemical; conditions: for Inhibitory activity against CaM-dependent kinases compared with cAMP-dependent kinase or protein kinase C: from data in Table I
[2] = system: CaM KI; experiment: Synapsin I phosphorylation at site 1 by Ca++/Calmodulin kinase (Table I A); format: biochemical
[3] = system: PKC; experiment: Synapsin I phosphorylation by PKC, Ca++/PSD (Table I B); format: biochemical
Excerpt: (§1) KS-501 & ent-KS-501 as Inhibitors of Ca++/Calmodulin PKC PKA
(§2) The results represent the mean of 3 experiments
Therefore in the reaction of CaMK or PKC, PKA inhibitor is included in th
In vitro PKC is able to phosphorylate Synapsin I at all 3 serine sites.

[4] = system: cAMP dependent kinase; experiment: Synapsin I phosphorylation by PKA, cAMP (Table I C); format: biochemical
Excerpt: as §1, §2
Site 1 is phosphorylated by both CaM KI and cAMP dependent kinase.
reaction mix. And in the reaction of PKA, EGTA is included.

[5] = system: Ca2+/CaM-sensitive phosphodiesterase; experiment: Inhibition of Ca2+/CaM-sensitive phosphodiesterase (FIGS. 1-4); format: biochemical; conditions: for Inhibitory effects on CaM-mediated enzyme activity: enantiomers compared with KS-501 and KS-502
Excerpt: FIG. 1 is a graph showing the effect of various concentrations of KS-501 on the activity of Ca^2+ /CaM-dependent phosphodiesterase.
FIG. 2 is a graph showing the effect of various concentrations of ent-KS-501 on the activity of Ca^2+ /CaM-dependent phosphodiesterase.
FIG. 3 is a graph showing the effect of various concentrations of KS-502 on the activity of Ca^2+ /CaM-dependent phosphodiesterase.
FIG. 4 is a graph showing the effect of various concentrations of ent-KS-502 on the activity of Ca^2+ /CaM-dependent phosphodiesterase.

[6] = system: CaM-PDE; conditions: background, cited from earlier work; for Concentration range inhibiting CaM-dependent activities of CaM-PDE: Nakanishi et al.
[7] = system: protein kinase C; conditions: background; cited from earlier work
[8] = Basal, compound 10 μM, basal control 0.016, mean of 3 experiments
[9] = Basal, compound 40 μM, basal control 0.016
[10] = Ca++/CaM, compound 10 μM, Ca++ CaM 3 μg control 0.125
[11] = Ca++/CaM, compound 40 μM, Ca++ CaM 3 μg control 0.125
[12] = Basal, compound 10 μM, basal control 0.022
[13] = Basal, compound 40 μM, basal control 0.022
[14] = Ca++/CaM, compound 10 μM, Ca++ CaM 3 μg control 0.049
[15] = Ca++/CaM, compound 40 μM, Ca++ CaM 3 μg control 0.049
[16] = Basal, compound 10 μM, basal control 0.016
[17] = Basal, compound 10 μM, basal control 0.018
[18] = Basal, compound 40 μM, basal control 0.018
[19] = Ca++/PSD, compound 10 μM, Ca++ PSD control 0.045
[20] = Ca++/PSD, compound 10 μM, Ca++ PSD control 0.079
[21] = Ca++/PSD, compound 40 μM, Ca++ PSD control 0.045
[22] = Ca++/PSD, compound 40 μM, Ca++ PSD control 0.079
[23] = Basal, compound 10 μM, basal control 0.007
[24] = Basal, compound 10 μM, basal control 0.028
[25] = Basal, compound 40 μM, basal control 0.007
[26] = Basal, compound 40 μM, basal control 0.028
[27] = cAMP, compound 10 μM, cAMP 1 μM control 0.008
[28] = cAMP, compound 10 μM, cAMP 1 μM control 0.041
[29] = cAMP, compound 40 μM, cAMP 1 μM control 0.008
[30] = cAMP, compound 40 μM, cAMP 1 μM control 0.041

| Concentration range inhibitory of CaM-sensitive Kinase II [1] [µM] | Phosphorylation of Synapsin I site 2,3 [1, 8] [pmole/mg protein/min] | Phosphorylation of Synapsin I site 2,3 [1, 9] [pmole/mg protein/min] | Phosphorylation of Synapsin I site 2,3 [1, 10] [pmole/mg protein/min] | Phosphorylation of Synapsin I site 2,3 [1, 11] [pmole/mg protein/min] | Phosphorylation of Synapsin I site 1 [2, 12] [pmole/mg protein/min] | Phosphorylation of Synapsin I site 1 [2, 13] [pmole/mg protein/min] | Phosphorylation of Synapsin I site 1 [2, 14] [pmole/mg protein/min] | Phosphorylation of Synapsin I site 1 [2, 15] [pmole/mg protein/min] | Phosphorylation of Synapsin I site 2,3 [4, 23] [pmole/mg protein/min] | Concentration range inhibitory of Ca2+/CaM-sensitive phosphodiesterase [5] | SMILES | Inhibitory activity against CaM-dependent kinases compared with cAMP-dependent kinase or protein kinase C [1] | Phosphorylation of Synapsin I site 2,3 [3, 16] [pmole/mg protein/min] | Phosphorylation of Synapsin I site 1 [3, 17] [pmole/mg protein/min] | Phosphorylation of Synapsin I site 2,3 [3, 9] [pmole/mg protein/min] | Phosphorylation of Synapsin I site 1 [3, 18] [pmole/mg protein/min] | Phosphorylation of Synapsin I site 1 [3, 19] [pmole/mg protein/min] | Phosphorylation of Synapsin I site 2,3 [3, 20] [pmole/mg protein/min] | Phosphorylation of Synapsin I site 1 [3, 21] [pmole/mg protein/min] | Phosphorylation of Synapsin I site 2,3 [3, 22] [pmole/mg protein/min] | also measured |
| --- | --- | --- | --- | --- | --- | --- | --- | --- | --- | --- | --- | --- | --- | --- | --- | --- | --- | --- | --- | --- | --- |
| 10 to 40 | 0.017 | 0.015 | 0.087 | 0.012 | 0.025 | 0.017 | 0.054 | 0.011 | 0.008 | 1 to 2 µM | CCCCCCCc1cc(O)cc(OC(=O)c2c(CCCCCCC)cc(O)cc2O[C@@H]2O[C@@H]([C@H](O)CO)[C@H](O)[C@H]2O)c1 [KS-501] | more inhibitory activity against CaM-dependent kinases than against cAMP-dependent kinase or protein kinase C | 0.015 | 0.020 | 0.015 | 0.016 | 0.041 | 0.061 | 0.017 | 0.030 | Phosphorylation of Synapsin I site 1 [4, 24]: 0.033 pmole/mg protein/min; Phosphorylation of Synapsin I site 2,3 [4, 25]: 0.007 pmole/mg protein/min; Phosphorylation of Synapsin I site 1 [4, 26]: 0.015 pmole/mg protein/min; Phosphorylation of Synapsin I site 2,3 [4, 27]: 0.008 pmole/mg protein/min; Phosphorylation of Synapsin I site 1 [4, 28]: 0.049 pmole/mg protein/min; Phosphorylation of Synapsin I site 2,3 [4, 29]: 0.009 pmole/mg protein/min; Phosphorylation of Synapsin I site 1 [4, 30]: 0.025 pmole/mg protein/min; Concentration range inhibiting CaM-dependent activities of CaM-PDE [6]: 1 to 5 µM; Concentrations required to inhibit CaM-independent activities [6]: Much higher concentrations; Effect on protein kinase C [7]: no effect |
| – | – | – | – | – | – | – | – | – | – | approximately 10 μM | CCCCCCCc1cc(OC(=O)c2c(CCCCCCC)cc(O)cc2O[C@@H]2O[C@@H]([C@H](O)CO)[C@H](O)[C@H]2O)cc(O)c1C(=O)O [KS-502] | – | – | – | – | – | – | – | – | – | Concentration range inhibiting CaM-dependent activities of CaM-PDE [6]: 1 to 5 µM; Concentrations required to inhibit CaM-independent activities [6]: Much higher concentrations; Effect on protein kinase C [7]: no effect |
| 10 to 40 | 0.018 | 0.018 | 0.076 | 0.021 | 0.023 | 0.019 | 0.043 | 0.012 | 0.006 | 1 to 2 µM | CCCCCCCc1cc(O)cc(OC(=O)c2c(CCCCCCC)cc(O)cc2O[C@H]2O[C@H]([C@@H](O)CO)[C@@H](O)[C@@H]2O)c1 [ent-KS-501] | more inhibitory activity against CaM-dependent kinases than against cAMP-dependent kinase or protein kinase C | 0.015 | 0.018 | 0.014 | 0.013 | 0.047 | 0.067 | 0.01 | 0.02 | Phosphorylation of Synapsin I site 1 [4, 24]: 0.025 pmole/mg protein/min; Phosphorylation of Synapsin I site 2,3 [4, 25]: 0.010 pmole/mg protein/min; Phosphorylation of Synapsin I site 1 [4, 26]: 0.017 pmole/mg protein/min; Phosphorylation of Synapsin I site 2,3 [4, 27]: 0.009 pmole/mg protein/min; Phosphorylation of Synapsin I site 1 [4, 28]: 0.049 pmole/mg protein/min; Phosphorylation of Synapsin I site 2,3 [4, 29]: 0.008 pmole/mg protein/min; Phosphorylation of Synapsin I site 1 [4, 30]: 0.03 pmole/mg protein/min; Inhibitory effects on CaM-mediated enzyme activity [5]: possess inhibitory activity |
| – | – | – | – | – | – | – | – | – | – | approximately 10 μM | CCCCCCCc1cc(OC(=O)c2c(CCCCCCC)cc(O)cc2O[C@H]2O[C@H]([C@@H](O)CO)[C@@H](O)[C@@H]2O)cc(O)c1C(=O)O [ent-KS-502] | – | – | – | – | – | – | – | – | – | Inhibitory effects on CaM-mediated enzyme activity [5]: possess inhibitory activity |
